Data published in ChEMBL document CHEMBL1152049, “Dual metalloprotease inhibitors.v. Utilization of bicyclic azepinonethiazolidines and azepinonetetrahydrothiazines in constrained peptidomimetics of mercaptoacyl dipeptides” (Bioorg Med Chem Lett, 1995).

Tests used:
[1] = biological target: T1, Angiotensin-converting enzyme (Rattus norvegicus, UniProt P47820); assay: In vitro inhibitory activity against angiotensin converting enzyme (ACE); details: read-out: I50
T1 sequence (P47820 whole entry): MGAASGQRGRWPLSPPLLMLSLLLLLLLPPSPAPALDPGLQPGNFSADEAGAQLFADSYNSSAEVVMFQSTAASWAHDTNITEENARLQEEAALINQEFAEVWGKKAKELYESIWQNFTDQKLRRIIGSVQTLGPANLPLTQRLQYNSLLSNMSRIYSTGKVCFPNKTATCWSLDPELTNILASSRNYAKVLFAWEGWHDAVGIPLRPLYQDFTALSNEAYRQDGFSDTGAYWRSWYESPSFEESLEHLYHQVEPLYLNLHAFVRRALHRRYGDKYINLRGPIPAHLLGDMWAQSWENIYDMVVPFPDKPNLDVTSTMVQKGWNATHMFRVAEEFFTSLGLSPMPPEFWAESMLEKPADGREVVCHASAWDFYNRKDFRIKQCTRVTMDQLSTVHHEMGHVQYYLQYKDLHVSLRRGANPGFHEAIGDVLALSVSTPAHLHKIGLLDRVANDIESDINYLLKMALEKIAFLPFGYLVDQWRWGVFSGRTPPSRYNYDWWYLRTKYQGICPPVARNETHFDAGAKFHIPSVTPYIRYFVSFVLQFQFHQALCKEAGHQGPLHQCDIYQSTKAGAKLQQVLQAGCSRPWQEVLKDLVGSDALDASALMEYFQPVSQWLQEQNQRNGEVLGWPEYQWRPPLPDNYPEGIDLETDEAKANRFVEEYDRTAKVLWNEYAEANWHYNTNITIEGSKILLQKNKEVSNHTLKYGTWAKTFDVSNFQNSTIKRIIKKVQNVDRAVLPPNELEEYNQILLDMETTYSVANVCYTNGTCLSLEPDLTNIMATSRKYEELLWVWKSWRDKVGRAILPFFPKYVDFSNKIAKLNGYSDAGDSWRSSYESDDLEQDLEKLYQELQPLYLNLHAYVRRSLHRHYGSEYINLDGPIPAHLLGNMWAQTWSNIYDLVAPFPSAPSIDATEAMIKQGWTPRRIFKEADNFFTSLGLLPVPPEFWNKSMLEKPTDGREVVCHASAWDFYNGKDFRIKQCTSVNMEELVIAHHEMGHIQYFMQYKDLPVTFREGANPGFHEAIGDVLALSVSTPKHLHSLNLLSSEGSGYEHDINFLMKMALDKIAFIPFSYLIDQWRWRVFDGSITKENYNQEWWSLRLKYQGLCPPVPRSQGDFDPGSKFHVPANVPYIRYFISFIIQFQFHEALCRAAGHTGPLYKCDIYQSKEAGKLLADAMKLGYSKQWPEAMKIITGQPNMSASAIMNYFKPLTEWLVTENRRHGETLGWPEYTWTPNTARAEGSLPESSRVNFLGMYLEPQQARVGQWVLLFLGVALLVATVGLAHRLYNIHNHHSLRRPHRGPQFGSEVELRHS

Neprilysin = biological target: T2, Neprilysin (Rattus norvegicus, UniProt P07861); assay: In vitro inhibitory activity against neutral endopeptidase (NEP); details: read-out: I50
T2 sequence (P07861 whole entry): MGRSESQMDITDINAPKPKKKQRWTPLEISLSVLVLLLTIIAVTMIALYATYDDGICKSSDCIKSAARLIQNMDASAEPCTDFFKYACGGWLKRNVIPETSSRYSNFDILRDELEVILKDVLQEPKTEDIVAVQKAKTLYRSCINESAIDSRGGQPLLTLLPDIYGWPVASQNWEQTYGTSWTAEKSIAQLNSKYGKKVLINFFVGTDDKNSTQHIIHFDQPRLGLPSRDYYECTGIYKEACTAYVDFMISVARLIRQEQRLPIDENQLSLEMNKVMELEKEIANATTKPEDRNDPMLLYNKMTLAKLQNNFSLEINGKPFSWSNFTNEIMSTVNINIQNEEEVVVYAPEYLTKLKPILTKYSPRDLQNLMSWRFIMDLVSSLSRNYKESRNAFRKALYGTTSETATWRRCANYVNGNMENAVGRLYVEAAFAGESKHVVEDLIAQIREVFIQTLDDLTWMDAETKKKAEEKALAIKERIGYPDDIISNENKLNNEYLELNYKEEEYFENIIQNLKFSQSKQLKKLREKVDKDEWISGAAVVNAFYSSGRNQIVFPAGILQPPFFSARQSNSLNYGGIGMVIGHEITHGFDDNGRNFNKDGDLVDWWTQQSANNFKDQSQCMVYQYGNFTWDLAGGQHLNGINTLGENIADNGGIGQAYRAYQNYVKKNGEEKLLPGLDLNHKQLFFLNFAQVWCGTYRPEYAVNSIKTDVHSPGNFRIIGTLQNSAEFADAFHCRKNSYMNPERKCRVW

Rattus norvegicus = organism: Rattus norvegicus; assay: Dose required to effect 50% inhibition of the AI induced pressor response in normotensive rat; assay type: functional

O=C(O)[C@H]1CCS[C@@H]2CCC[C@H](NC(=O)[C@@H](S)Cc3ccccc3)C(=O)N12
IC50 [1]: 205 nM | IC50 (Neprilysin): 937 nM

O=C(N[C@H]1CCC[C@@H]2SC[C@@H](C(=O)O)N2C1=O)[C@@H](S)Cc1ccccc1
IC50 [1]: 11.5 nM | IC50 (Neprilysin): 2820 nM

O=C(N[C@H]1CCC[C@@H]2SCC[C@@H](C(=O)O)N2C1=O)[C@@H](S)Cc1ccccc1
IC50 [1]: 11.6 nM | IC50 (Neprilysin): 133 nM

O=C(N[C@H]1CCC[C@H]2SCC[C@@H](C(=O)O)N2C1=O)[C@@H](S)Cc1ccccc1
IC50 [1]: 25 nM | IC50 (Neprilysin): 42 nM

O=C(N[C@H]1CCC[C@H]2SC[C@@H](C(=O)O)N2C1=O)[C@@H](CS)Cc1ccccc1
IC50 [1]: 5.5 nM | IC50 (Neprilysin): 1.1 nM | ED50 (Rattus norvegicus): 0.8 µmol/kg

O=C(N[C@H]1CCC[C@H]2SC[C@@H](C(=O)O)N2C1=O)[C@@H](S)Cc1ccccc1
IC50 [1]: 1.6 nM | IC50 (Neprilysin): 11.5 nM | ED50 (Rattus norvegicus): 0.07 µmol/kg
